Laboratory results taken from article PMC9100673, “Acridine Based N-Acylhydrazone Derivatives as Potential Anticancer Agents: Synthesis, Characterization and ctDNA/HSA Spectroscopic Binding Properties” (Molecules, 2022).

How the values were obtained:
Assay type in all cases: cell-based, human
A549 cells [1] = assay: Colony forming (clonogenic) assay; settings: 48 h treatment, 7 days cultivation; for effect on ability of A549 cells to form new colonies: 25 μM; for reduction of clonogenic ability of A549 cells vs control: 50 μM
Experimental: To assess drug efficacy and prevent treatment failure, it is important to observe whether cancer cells may proliferate during the interval between treatments. The clonogenic assay evaluates the efficacy of new drugs by observation of reduced repopulation of cancer cells and cell survival after treatment. This assay is important to select eligible anticancer drug candidates. The clonogenic survival was analysed after treatment of A549 cells with the compounds 3a and 3c. DMSO (0.5%) was used as solvent control. A549 cells were treated with 3a and 3c in concentrations of 25 and 50 μM for 48 h. The cells were then counted, and 500 viable cells per well were seeded and cultivated for another seven days under standard conditions.
For the colony forming assay, floating and adherent cells were harvested together 48 h after treatment with the studied compounds (25 and 50 µM). The cells were then counted using a Bürker chamber with eosin staining and 500 viable cells per well were seeded in 6-well plates. After seven days of cultivation under standard conditions, the cells in the plates were fixed and stained with 1% methylene blue dye in methanol. Visualized colonies were scanned and counted by Image software, and the results were evaluated as percentages of the untreated control. The results are presented as the average percentage of colonies from three independent experiments.

A549 cells [2] = assay: Cell cycle analysis by flow cytometry; settings: 25 and 50 μM, 48 h
Experimental: For flow cytometric analysis of the cell cycle distribution, floating and adherent cells were harvested together 48 h after treatment with the compounds (25 and 50 µM), washed in cold PBS, fixed in cold 70% ethanol, and stored overnight at −20 °C. Prior to analysis, the cells were washed twice in PBS, resuspended in a staining solution (0.1% Triton X-100, 0.137 g L^−1 ribonuclease A and 0.02 g L^−1 propidium iodide (PI) and incubated in dark conditions at RT for 30 min. The DNA content was analysed using a BD FACSCalibur flow cytometer (Becton Dickinson, San Jose, CA, USA) with a 488 nm argon-ion excitation laser, and fluorescence was detected using a 585/42 nm band-pass filter (FL-2). ModFit 3.0 software (Verity Software House, Topsham, ME, USA) was used to generate DNA content frequency histograms and to quantify the percentage of cells in the individual cell cycle phases. The results are presented as the average ratio of cells in the individual phase to all cells from three independent experiments.

CCD-18Co cells = assay: MTT assay, metabolic activity of CCD-18Co fibroblasts; settings: 48 h; for IC50: Homo sapiens, CCD-18Co
Experimental: The effect of acridine-benzohydrazides (3a–3d) on the metabolic activity of the lung adenocarcinoma cell line (A549) and the normal colon fibroblast cell line (CCD-18Co) was evaluated using a 3-(4,5-dimethylthiazol-2-yl)-2,5-diphenyltertrazolium bromide (MTT) cell assay. This assay is based on the metabolization of yellow MTT to purple formazan crystal by mitochondrial dehydrogenases, and therefore only metabolic active cells are capable of that reaction. The CCD-18Co cell line was used as a control to check for derivatives selectivity. The doxorubicin belongs to a group of anthracyclines, which represent the chemotherapeutic regiments for the treatment of NSCLC (non-small cell lung carcinoma) even today, and acts as antineoplastic mainly by interaction with the DNA topoisomerase II and by creating DNA single- and double-strand breaks. Previous studies described detailed cytotoxic effects of doxorubicin in the human lung adenocarcinoma A549 cell line. Doxorubicin resembles our compounds in its biological action; therefore, it was employed as a positive control.
Human lung carcinoma cell line A549 and CCD-18Co colon fibroblasts were purchased from the American Type Culture Collection (ATCC, Rockville, MD, USA). The A549 cells were cultured in a complete RPMI-1640 medium (Sigma-Aldrich, St. Louis, MO, USA) and CCD-18Co cells were cultured in a minimum essential medium (MEM) (PAN-Biotech GmbH, Aidenbach, Germany) at 37 °C, 95% humidity and 5% CO2. The media were supplemented with 10% fetal bovine serum (FBS, Biosera, Nuaille, France) and antibiotics (1% Antibiotic-Antimycotic 100 × and 50 × 10^−3 g L^−1 gentamicin, Biosera). Prior to the selected treatments, cells were seeded on 6- and/or 96-well plates (TPP, Trasadingen, Switzerland) and left to settle for 24 h. The acridine compounds solutions (at concentrations ranging from 5–75 µM) were then added to cells for 24 or 48 h, and analysis was subsequently performed.
MTT assays were performed in order to evaluate changes in the metabolic activity of cells that had occurred as a consequence of treatment with the acridine compounds. A549 cells (15 × 10^3 cells/cm^2) and CCD-18Co (15.625 × 10^3 cells/cm^2) were seeded in 96-well microplates. The A549 cells were treated for 24 and 48 h, and the CCD-18Co cells were treated for 48 h with different concentrations (5, 25, 50 and 75 µM) of the derivatives. After the treatment, the MTT (3-(4,5-dimethylthiazol-2-yl)-2,5-diphenyltertrazolium bromide) solution in PBS (5 mg mL^−1) was added to each well. The reaction was stopped after 4 h incubation, and the formazan was dissolved by the addition of SDS at a final concentration of 3.3%. The absorbance of formazan (λ = 584 nm) was measured using a BMG FLUOstar Optima spectrometer (BMG Labtech GmbH, Offenburg, Germany). The results were evaluated as percentages of the absorbance of the untreated control. Results are presented as the average percentage of cells from three independent experiments. IC50 values for the derivatives were extrapolated from a sigmoidal fit (dose-response curve) to the metabolic activity data using OriginPro 8.5.0 SR1 (OriginLab Corp., Northampton, MA, USA).

A549 cells [3] = assay: Quantification of cell number and viability (eosin staining, Bürker chamber); settings: 50 μM, 48 h
Experimental: For the assessment of total cell numbers and viability within individual experimental groups, floating and adherent cells were harvested after treatment with the studied compounds and evaluated using a Bürker chamber with eosin staining. A549 cells were plated at a density of 135 × 10^3 cell/well into a 6-well plate and treated with different concentration of derivatives (25 and 50 µM) for 48 h. The total cell number was expressed as a percentage of the untreated control of the total cell number. Viability was expressed as a percentage of viable, eosin negative cells. The results are presented as the average percentage of cells from three independent experiments.

Compound | effect on ability of A549 cells to form new colonies (A549 cells [1]) | reduction of clonogenic ability of A549 cells vs control (A549 cells [1]) | effect on cell cycle distribution (A549 cells [2]) | IC50 (CCD-18Co cells) | decrease of viability of A549 cells vs control (A549 cells [3]) | reduction of total cell number vs control (A549 cells [3]) | times less activity than doxorubicin in CCD18-Co (CCD-18Co cells; from IC50)
O=C(N/N=C/c1cccc2cc3ccccc3nc12)c1ccc(Cl)cc1 [3c, N′-[(E)-Acridin-4-ylmethylidene]-4-chlorobenzohydrazide] | did not significantly reduce | 74% | accumulation of cells in the G2/M phase | 16 µM | 14% | ~91% | –
O=C(N/N=C/c1cccc2cc3ccccc3nc12)c1ccc(Br)cc1 [3d, N′-[(E)-Acridin-4-ylmethylidene]-4-bromobenzohydrazide] | – | – | – | 17 µM | – | – | –
O=C(N/N=C/c1cccc2cc3ccccc3nc12)c1ccccc1 [3a, N′-[(E)-(Acridin-4-yl)methylidene]benzohydrazide] | did not significantly reduce | 72% | accumulation of cells in the G2/M phase | > 75 µM | 34% | approximately 94% | > 15
O=C(N/N=C/c1cccc2cc3ccccc3nc12)c1ccc(F)cc1 [3b, N′-[(E)-Acridin-4-ylmethylidene]-4-fluorobenzohydrazide] | – | – | – | 8 µM | – | – | –
